Results from patent US20220090209A1, “RETROTRANSPOSON BIOMARKERS” (VIB VZW, priority 2019, published 2022).

Legend:
4T1^Hif1b-KO grafts = assay: 4T1 Hif1b-KO grafts in mice treated with aza or vehicle; format: in vivo, mouse
Description: (§1) Four gRNAs targeting two different exons in the Hif1b locus of the mouse genome and one non-targeting gRNA (scramble) were designed with the appropriate restriction sites for the receiver plasmid using the online Crispor tool (http://crispor.tefor.net). Oligonucleotides corresponding to gRNAs were synthesized by IDT, and forward and reverse oligonucleotides were annealed in the CutSmart buffer (B7240S, NEB) before cloning into the LentiGuide-Puro plasmid (Plasmid 52963, Addgene). Positive colonies were screened by PCR and validated by Sanger sequencing. LentiGuide-Puro plasmids containing GFP was used as positive control to evaluate the transfection- and transduction-efficacy.
(§2) 4T1 cells were transduced with a lentiviral vector expressing a doxycycline inducible Cas9 nuclease (Cat #CAS11229, Dharmacon) for a tight regulation of the Cas9 expression and gene editing. An infection rate of 30% was used to ensure that the majority of transduced cells harbour a single copy of the vector. These 4T1 cells were always kept in selection medium containing 10 μg/mL of blasticidin (ant-bl-05, Invivogen). When reaching 70% confluency, cells were transduced with one titer of virus. After 24h, the virus was removed and transduction efficacy evaluated based on GFP expression. After 48h, puromycin (P9620, Sigma-Aldrich) 1.5 μg/mL medium was added to the medium. Cells were kept in the presence of blasticidin and puromycin for the remaining experimental procedures. After 3-5 days, Cas9 expression was induced by adding […] (D2975000, Sigma-Aldrich) 0.5 μg/mL medium for 3 days. Cells were kept one day without […] before injection in the mice or further experimental procedures. 4T1 cells transduced with the four gRNAs targeting Hif1b were expanded and proteins were extracted to test the efficacy of the knockout by western blot. […]
(§3) All the experimental procedures were approved by the Institutional Animal Care and Research Advisory Committee of the KU Leuven. […] Tumour volumes were monitored every two to three days by a calliper, and mice were culled before tumour volumes exceeded 2,000 mm^3. […]

4T1^Hif1b-scr grafts = assay: 4T1 Hif1b-scr (scramble-control) grafts in mice treated with aza or vehicle; format: in vivo, mouse
Description: as §1, §2, §3

4T1 cells = assay: Retrotransposon expression in 4T1 cells in vitro; format: cell-based, mouse
Description: (§4) Where indicated, cells were pre-treated with 5-aza-2′-deoxycytidine (aza, 1 μM) for 3 days by adding the correct volume to fresh culture medium while using an equal volume of the carrier (DMSO) as control. This was followed by another day of exposure to aza in hypoxia or normoxia, bringing the total aza exposure time for experiments to 4 days. 2 mM of DMOG (dimethyloxalylglycine, Sigma) was added to culture medium for 24 hours where indicated.
(§5) mRNA capture and stranded library preparation of RNA from MCF7 cells, mouse cell lines and tumours for the purpose of retrotransposon expression analysis was performed using the KAPA Stranded mRNA-Seq Kit (Illumina) according to the provided protocol.
(§6) RNA-seq data were expressed in transcript per million (TPM), 0.01 offset. Expression read counts of retrotransposons are calculated using the RepEnrich tool (https://github.com/nerettilab/RepEnrich), and normalized to the total mappable read depth. The repeat genome of the human reference genome hg19 was download from the RepEnrich website. Human retrotransposon classes (LINE, SINE, LTR) contain 16 families and 779 subfamilies. The repeat genome of the mouse genome mm10 was built using the repeat masker track from the UCSC genome browser. Mouse retrotransposon classes (LINE, SINE, LTR) contain 24 families and 906 subfamilies.

MCF7 cells [1] = assay: DNA methylation in aza-treated MCF7 cells (LC-ESI-MS/MS of 5mC, BS-seq); format: cell-based, human
[2] = system: HIF1B-knockout MCF7 cells; assay: Retrotransposon expression by mRNA-seq and RepEnrich in HIF1B-knockout MCF7 cells; format: cell-based, human
Description: MCF7, RCC4, SK-MEL-28, A549, 4T1, MC38 and CT26 cell lines were obtained from the American Type Culture Collection and their identity was not further authenticated. These are not listed in the database of commonly misidentified cell lines maintained by ICLAC. MCF7 HIF1B-knockout cells were previously described (Ahmed et al. 2013, Toxicol Sci 138:89-103). MCF7, RCC4, A549, MC38 and 4T1 cells were cultured at 37° C. in Dulbecco's modified Eagle medium (DMEM) with 10% fetal bovine serum (FBS), 5 mL of 100 U/mL Penicillin-Streptomycin (Pen Strep, Life Technologies) and 5 mL of L-Glutamine 200 mM. SK-MEL-28 and CT26 cell lines were cultured at 37° C. in Roswell Park Memorial Institute 1640 Medium (RPMI) with 10% FBS 1% Penicillin-Streptomycin and 1% L-Glutamine.
as §4, with “2 mM of DMOG (dimethyloxalylglycine, Sigma) was added to culture medium for 24 hours where indicated.” left out
RNA-seq data were expressed in transcript per million (TPM), 0.01 offset. Expression read counts of retrotransposons are calculated using the RepEnrich tool (https://github.com/nerettilab/RepEnrich), and normalized to the total mappable read depth. […]

[3] = system: HIF1β binding peaks in MCF7 cells; assay: HIF1β ChIP-seq in hypoxic vehicle- and aza-treated MCF7 cells
MCF7 cells [4] = assay: Retrotransposon expression by mRNA-seq and RepEnrich in MCF7 cells; format: cell-based, human
Description: as §4, §5, §6

4T1 tumours [5] = assay: RNA-seq of 4T1 tumours from treated mice (retrotransposon expression, immune signatures); format: in vivo, mouse
Description: as §5, §6
(§7) All the experimental procedures were approved by the Institutional Animal Care and Research Advisory Committee of the KU Leuven. 1×10^6 4T1 cells, Hif1b-knockout or wild-type (scramble), were injected orthotopically in the mammary gland of 10 weeks old Balb/c mice, and 1×10^6 CT26 or MC38 cells were injected subcutaneously in 10 weeks old Balb/c or C57BL/6J mice, respectively. When the tumour was palpable (starting volume 100 mm^3), the mice were injected intraperitoneally with 0.8 mg/kg of 5-aza-2′-deoxycytidine (aza) or PBS, 40 mg/kg DC101 antibody (BE0089, InVivoMab) or IgG (BE0060, InVivoMab) or 10 mg/kg anti-PD1 antibody (6E0146, InVivoMab) or IgG antibody (BE0089, InVivoMab) according to the following schedules: DC101 three times per week; anti-PD1 every other day, starting when the tumour size was around 200 mm^3; aza was administered in 2 cycles with 2-days rest in between until the control tumours reached the endpoint. Tumour volumes were monitored every two to three days by a calliper, and mice were culled before tumour volumes exceeded 2,000 mm^3. When over 20% of mice were culled, the experiment was terminated (all arms). In vivo experiments in 4T1, CT26 and MC38 treated with aza or anti-PD1 antibody were performed three times, with at least 6 mice per treatment group in each experiment.

4T1 tumours [6] = assay: Growth of orthotopic 4T1 tumours in mice; format: in vivo, mouse; conditions: aza versus vehicle, P=3.0×10^-3
Description: as §7

4T1 tumours [7] = assay: Immunofluorescence of 4T1 tumours (CD31, pimonidazole, CD8, granzyme B); format: in vivo, mouse; conditions: aza versus vehicle
Description: as §7, with “experiment. […]” for “experiment.”

[8] = aza versus PBS, GSVA on immune metagenes

Nc1ncn([C@H]2C[C@H](O)[C@@H](CO)O2)c(=O)n1 [aza, 5-aza-2′-deoxycytidine]
cancer testis antigen expression (4T1^Hif1b-KO grafts; aza treatment): significant upregulation | graft size (4T1^Hif1b-KO grafts; aza versus vehicle, P=0.21): failed to show this reduction | number of activated T cells (4T1^Hif1b-KO grafts; following aza): failed to show such increase | cancer testis antigen expression (4T1^Hif1b-scr grafts; aza treatment): significant upregulation | graft size (4T1^Hif1b-scr grafts; aza versus vehicle, P=0.021): significantly reduced size | number of activated T cells (4T1^Hif1b-scr grafts; following aza): increased | retrotransposon expression (4T1 cells): increase | overall reduction of DNA methylation (MCF7 cells [1]; MCF7 cells pharmacologically demethylated with aza (1 μM, 4 days)): 70.5±5.5% | reduced methylation at new HIF1β binding sites in aza-treated cells (MCF7 cells [1]; aza-treated versus untreated MCF7 cells): 2.5 fold | retrotransposon overexpression (increase) ([2]; aza alone): 25% | retrotransposon overexpression (increase) ([2]; aza in hypoxia): 20% | new HIF1β binding peaks exposed ([3]; HIF1β ChIP-seq, hypoxia 0.5% O2 16 hours): 1,236 | fraction of aza-specific HIF1β binding peaks in retrotransposons ([3]; versus 4.1% in vehicle-treated MCF7 cells): 8.1% | enrichment of novel aza-specific HIF1β binding peaks for retrotransposons ([3]; versus peaks in vehicle-treated MCF7 cells): 2 fold | increase in expression of the 176 retrotransposon subfamilies bound by HIF1β (MCF7 cells [4]; aza alone): 23% | expression of the 59 retrotransposons correlated with cytolytic activity (MCF7 cells [4]; aza-treated MCF7 cells, P<0.05): upregulated | average increase in retrotransposon expression (MCF7 cells [4]; combined aza and chronic (4-day) hypoxia): 45% | increase in expression of the 176 retrotransposon subfamilies bound by HIF1β (MCF7 cells [4]; combined aza and hypoxia (24 hours, 0.5% O2)): 27% | activated T cell and natural killer cell signatures (4T1 tumours [5]; [8]): upregulated | myeloid-derived suppressor cell signatures (4T1 tumours [5]; [8]): downregulated | cell proliferation marker expression (4T1 tumours [5]; aza versus vehicle): did not reduce | retrotransposon expression (4T1 tumours [5]; in vivo, aza versus vehicle): increased | change in tumour growth (4T1 tumours [6]): −32% | increase in number of activated, granzyme B-positive T cells (4T1 tumours [7]; P<0.05): 2.1 fold | T-cell infiltration (4T1 tumours [7]; immunofluorescence of CD8+ T cells): unaffected
